{
  "source": "ChEMBL document CHEMBL4811283",
  "about": "“New camptothecin derivatives for generalized oncological chemotherapy: Synthesis, stereochemistry and biology” (Bioorg Med Chem Lett, 2021)",
  "key": {"[1]": {"test_system": "MCF7", "assay": "Cytotoxicity against human MCF7 cells assessed as inhibition of cell growth measured after 72 hrs", "format": "functional, cell-based", "conditions": "MCF7, 72 h"}, "[2]": {"test_system": "HT-29", "assay": "Cytotoxicity against human HT-29 cells assessed as inhibition of cell growth measured after 72 hrs", "format": "functional, cell-based", "conditions": "HT-29, 72 h"}, "[3]": {"test_system": "CCD-841CoN", "assay": "Cytotoxicity against human CCD-841CoN cells assessed as inhibition of cell growth measured after 72 hrs", "format": "cell-based"}, "[4]": {"test_system": "A549", "assay": "Cytotoxicity against human A549 cells assessed as inhibition of cell growth measured after 72 hrs", "format": "functional, cell-based", "conditions": "A549, 72 h"}, "[5]": {"test_system": "HL-60", "assay": "Cytotoxicity against human HL-60 cells assessed as inhibition of cell growth measured after 72 hrs", "format": "functional, cell-based", "conditions": "HL-60, 72 h"}},
  "data": [
    {"smiles": "CCc1c2c(nc3ccc(O)cc13)-c1cc3c(c(=O)n1[C@H]2CO)COC(=O)[C@]3(O)CC", "values": [
      {"measurement": "IC50", "setting": "[1]", "result": 15.9, "unit": "µM"},
      {"measurement": "IC50", "setting": "[2]", "result": 9.48, "unit": "µM"},
      {"measurement": "IC50", "setting": "[3]", "result": 382, "unit": "µM"},
      {"measurement": "IC50", "setting": "[4]", "result": 4.27, "unit": "µM"},
      {"measurement": "IC50", "setting": "[5]", "result": 0.722, "unit": "µM"}
    ]},
    {"smiles": "CCc1c2c(nc3ccc(O)cc13)-c1cc3c(c(=O)n1[C@H]2CN1CCCC1)COC(=O)[C@]3(O)CC", "values": [
      {"measurement": "IC50", "setting": "[1]", "result": 0.81, "unit": "µM"},
      {"measurement": "IC50", "setting": "[2]", "result": 0.598, "unit": "µM"},
      {"measurement": "IC50", "setting": "[3]", "result": 24.4, "unit": "µM"},
      {"measurement": "IC50", "setting": "[4]", "result": 0.204, "unit": "µM"},
      {"measurement": "IC50", "setting": "[5]", "result": 0.011, "unit": "µM"}
    ]},
    {"smiles": "CCc1c2c(nc3ccc(O)c(CN4CCC4)c13)-c1cc3c(c(=O)n1[C@H]2CO)COC(=O)[C@]3(O)CC", "values": [
      {"measurement": "IC50", "setting": "[1]", "result": 11.1, "unit": "µM"},
      {"measurement": "IC50", "setting": "[2]", "result": 6.98, "unit": "µM"},
      {"measurement": "IC50", "setting": "[3]", "result": "> 1000", "unit": "µM"},
      {"measurement": "IC50", "setting": "[4]", "result": 5.22, "unit": "µM"},
      {"measurement": "IC50", "setting": "[5]", "result": 0.334, "unit": "µM"}
    ]},
    {"smiles": "CCc1c2c(nc3ccc(O)c(CO)c13)-c1cc3c(c(=O)n1C2)COC(=O)[C@]3(O)CC", "values": [
      {"measurement": "IC50", "setting": "[2]", "result": 0.68, "unit": "µM"},
      {"measurement": "IC50", "setting": "[3]", "result": "> 1000", "unit": "µM"},
      {"measurement": "IC50", "setting": "[4]", "result": 11, "unit": "µM"}
    ]},
    {"smiles": "CCc1c2c(nc3ccc(O)c(CN4CCC4)c13)-c1cc3c(c(=O)n1[C@@H]2CO)COC(=O)[C@]3(O)CC", "values": [
      {"measurement": "IC50", "setting": "[1]", "result": 6.7, "unit": "µM"},
      {"measurement": "IC50", "setting": "[2]", "result": 2.5, "unit": "µM"},
      {"measurement": "IC50", "setting": "[3]", "result": "> 1000", "unit": "µM"},
      {"measurement": "IC50", "setting": "[4]", "result": 1.17, "unit": "µM"},
      {"measurement": "IC50", "setting": "[5]", "result": 0.113, "unit": "µM"}
    ]},
    {"smiles": "CCc1c2c(nc3ccc(OC(=O)N4CCC(N5CCCCC5)CC4)cc13)-c1cc3c(c(=O)n1C2)COC(=O)[C@]3(O)CC", "note": "[IRINOTECAN]", "values": [
      {"measurement": "IC50", "setting": "[1]", "result": 14.1, "unit": "µM"},
      {"measurement": "IC50", "setting": "[2]", "result": 6.85, "unit": "µM"},
      {"measurement": "IC50", "setting": "[3]", "result": 90.2, "unit": "µM"},
      {"measurement": "IC50", "setting": "[4]", "result": 26.7, "unit": "µM"},
      {"measurement": "IC50", "setting": "[5]", "result": 4.24, "unit": "µM"}
    ]},
    {"smiles": "CCc1c2c(nc3ccc(O)cc13)-c1cc3c(c(=O)n1[C@@H]2CO)COC(=O)[C@]3(O)CC", "values": [
      {"measurement": "IC50", "setting": "[1]", "result": 14.9, "unit": "µM"},
      {"measurement": "IC50", "setting": "[2]", "result": 14.8, "unit": "µM"},
      {"measurement": "IC50", "setting": "[3]", "result": 62, "unit": "µM"},
      {"measurement": "IC50", "setting": "[4]", "result": 6.54, "unit": "µM"},
      {"measurement": "IC50", "setting": "[5]", "result": 1.89, "unit": "µM"}
    ]},
    {"smiles": "C=c1c2c(CC)c3cc(O)ccc3nc2c2cc3c(c(=O)n12)COC(=O)[C@]3(O)CC", "values": [
      {"measurement": "IC50", "setting": "[2]", "result": 0.15, "unit": "µM"},
      {"measurement": "IC50", "setting": "[3]", "result": 92.2, "unit": "µM"},
      {"measurement": "IC50", "setting": "[4]", "result": 1.94, "unit": "µM"}
    ]},
    {"smiles": "CCc1c2c(nc3ccc(O)cc13)-c1cc3c(c(=O)n1C2)COC(=O)[C@]3(O)CC", "note": "[7-ETHYL-10-HYDROXYCAMPTOTHECIN]", "values": [
      {"measurement": "IC50", "setting": "[1]", "result": 0.66, "unit": "µM"},
      {"measurement": "IC50", "setting": "[2]", "result": 0.02, "unit": "µM"},
      {"measurement": "IC50", "setting": "[3]", "result": 4.98, "unit": "µM"},
      {"measurement": "IC50", "setting": "[4]", "result": 0.028, "unit": "µM"},
      {"measurement": "IC50", "setting": "[5]", "result": 0.002, "unit": "µM"}
    ]},
    {"smiles": "CCc1c2c(nc3ccc(O)cc13)-c1cc3c(c(=O)n1[C@@H]2CN1CCCC1)COC(=O)[C@]3(O)CC", "values": [
      {"measurement": "IC50", "setting": "[1]", "result": 0.906, "unit": "µM"},
      {"measurement": "IC50", "setting": "[2]", "result": 0.493, "unit": "µM"},
      {"measurement": "IC50", "setting": "[3]", "result": 21.8, "unit": "µM"},
      {"measurement": "IC50", "setting": "[4]", "result": 0.272, "unit": "µM"},
      {"measurement": "IC50", "setting": "[5]", "result": 0.007, "unit": "µM"}
    ]},
    {"smiles": "CCc1c2c(nc3ccc(O)c(N(C)CCO)c13)-c1cc3c(c(=O)n1C2)COC(=O)[C@]3(O)CC", "values": [
      {"measurement": "IC50", "setting": "[1]", "result": 1.21, "unit": "µM"},
      {"measurement": "IC50", "setting": "[2]", "result": 0.15, "unit": "µM"},
      {"measurement": "IC50", "setting": "[3]", "result": 36.1, "unit": "µM"},
      {"measurement": "IC50", "setting": "[4]", "result": 0.403, "unit": "µM"},
      {"measurement": "IC50", "setting": "[5]", "result": 0.009, "unit": "µM"}
    ]}
  ]
}
